From US12358886B2, “Heterocyclic compounds for use in the treatment of cancer” (Artios Pharma Limited, priority 2019, dated 2025)

Target: Polθ protein (amino acids 2-2590) (Homo sapiens, UniProt O75417)
Assay: Polθ full length enzyme potency assay (PicoGreen)
Details: Polθ IC50 (nM), full length N-His, C-term FLAG tagged Polθ, PicoGreen fluorescence, 12 point concentration response

Sequence of Polθ protein (amino acids 2-2590) (O75417 2-2590): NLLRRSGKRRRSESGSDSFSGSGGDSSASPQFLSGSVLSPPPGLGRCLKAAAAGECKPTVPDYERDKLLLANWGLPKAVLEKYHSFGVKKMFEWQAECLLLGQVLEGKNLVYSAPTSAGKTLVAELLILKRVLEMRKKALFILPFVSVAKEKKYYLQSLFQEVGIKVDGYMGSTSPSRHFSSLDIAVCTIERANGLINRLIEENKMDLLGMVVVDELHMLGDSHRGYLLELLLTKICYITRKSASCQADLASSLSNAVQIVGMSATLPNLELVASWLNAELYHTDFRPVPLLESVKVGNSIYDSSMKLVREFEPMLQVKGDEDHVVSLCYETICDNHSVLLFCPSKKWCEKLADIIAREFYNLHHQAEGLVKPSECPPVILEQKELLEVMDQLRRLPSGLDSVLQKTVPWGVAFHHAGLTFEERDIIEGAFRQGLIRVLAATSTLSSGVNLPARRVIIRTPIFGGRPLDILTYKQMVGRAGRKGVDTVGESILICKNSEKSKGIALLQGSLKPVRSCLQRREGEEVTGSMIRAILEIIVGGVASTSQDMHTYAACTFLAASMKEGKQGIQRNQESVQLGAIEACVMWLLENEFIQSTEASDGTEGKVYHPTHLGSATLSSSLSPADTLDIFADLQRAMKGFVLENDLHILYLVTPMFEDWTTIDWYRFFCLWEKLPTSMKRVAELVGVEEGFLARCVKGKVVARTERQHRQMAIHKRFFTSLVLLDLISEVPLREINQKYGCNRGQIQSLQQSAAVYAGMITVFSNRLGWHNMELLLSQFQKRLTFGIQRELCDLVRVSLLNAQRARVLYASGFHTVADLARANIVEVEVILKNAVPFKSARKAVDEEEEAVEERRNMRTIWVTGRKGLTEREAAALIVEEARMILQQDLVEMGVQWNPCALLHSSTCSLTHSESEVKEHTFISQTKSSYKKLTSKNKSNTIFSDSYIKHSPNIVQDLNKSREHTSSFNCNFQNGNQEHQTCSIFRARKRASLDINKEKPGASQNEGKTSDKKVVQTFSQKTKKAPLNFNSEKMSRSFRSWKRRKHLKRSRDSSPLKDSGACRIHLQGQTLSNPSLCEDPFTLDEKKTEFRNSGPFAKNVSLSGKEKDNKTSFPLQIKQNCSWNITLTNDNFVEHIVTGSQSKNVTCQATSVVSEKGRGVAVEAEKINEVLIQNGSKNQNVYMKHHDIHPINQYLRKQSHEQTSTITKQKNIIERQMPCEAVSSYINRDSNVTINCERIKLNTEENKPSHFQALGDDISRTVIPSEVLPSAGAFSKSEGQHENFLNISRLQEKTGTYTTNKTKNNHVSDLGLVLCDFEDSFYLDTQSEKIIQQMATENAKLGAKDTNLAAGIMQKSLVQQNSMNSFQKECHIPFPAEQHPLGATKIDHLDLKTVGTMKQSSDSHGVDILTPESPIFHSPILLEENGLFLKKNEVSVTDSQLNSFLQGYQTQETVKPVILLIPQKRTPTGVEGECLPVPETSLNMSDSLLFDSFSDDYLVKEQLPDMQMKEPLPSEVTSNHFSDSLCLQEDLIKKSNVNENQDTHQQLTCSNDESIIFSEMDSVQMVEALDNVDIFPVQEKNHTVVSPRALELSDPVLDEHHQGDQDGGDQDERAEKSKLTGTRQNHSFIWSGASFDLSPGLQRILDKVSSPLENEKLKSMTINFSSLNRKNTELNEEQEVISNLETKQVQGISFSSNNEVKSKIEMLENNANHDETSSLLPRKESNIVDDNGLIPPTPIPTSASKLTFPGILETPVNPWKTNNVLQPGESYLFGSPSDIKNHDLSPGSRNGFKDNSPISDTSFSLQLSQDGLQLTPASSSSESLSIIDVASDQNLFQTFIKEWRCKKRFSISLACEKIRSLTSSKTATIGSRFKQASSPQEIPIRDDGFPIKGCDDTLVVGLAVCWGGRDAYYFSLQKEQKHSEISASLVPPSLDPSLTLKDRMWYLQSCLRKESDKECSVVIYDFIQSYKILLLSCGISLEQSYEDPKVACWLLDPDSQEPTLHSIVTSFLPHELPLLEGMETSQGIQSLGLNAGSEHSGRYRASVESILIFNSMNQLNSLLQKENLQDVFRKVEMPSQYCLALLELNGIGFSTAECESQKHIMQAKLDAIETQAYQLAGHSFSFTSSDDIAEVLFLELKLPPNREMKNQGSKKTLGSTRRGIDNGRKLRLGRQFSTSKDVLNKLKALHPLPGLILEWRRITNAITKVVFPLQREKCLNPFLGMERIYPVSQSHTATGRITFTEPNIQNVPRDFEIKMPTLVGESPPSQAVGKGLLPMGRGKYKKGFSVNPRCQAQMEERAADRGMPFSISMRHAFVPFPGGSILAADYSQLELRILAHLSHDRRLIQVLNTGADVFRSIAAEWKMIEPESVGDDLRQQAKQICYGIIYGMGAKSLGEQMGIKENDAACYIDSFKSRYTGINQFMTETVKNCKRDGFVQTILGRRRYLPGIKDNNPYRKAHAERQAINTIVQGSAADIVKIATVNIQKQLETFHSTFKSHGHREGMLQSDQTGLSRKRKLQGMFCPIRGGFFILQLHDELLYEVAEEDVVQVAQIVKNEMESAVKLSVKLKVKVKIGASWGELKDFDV

Row | IC50 [nM] | SMILES
1 | 21 | CN(C(=O)[C@@H]1COC(=O)N1c1cc(C(F)(F)F)cc(Cl)n1)c1ccc(F)c(Cl)c1 [Example 113, (S)-3-(6-Chloro-4-(trifluoromethyl)pyridin-2-yl)-N-(3-chloro-4-fluorophenyl)-N-methyl-2-oxooxazolidine-4-carboxamide]
2 | 833 | Cc1cc(C(F)(F)F)cc(N2C(=O)OC[C@H]2C(=O)N(C)c2ccc3cccnc3c2)n1 [Example 178, (S)—N-Methyl-3-(6-methyl-4-(trifluoromethyl)pyridin-2-yl)-2-oxo-N-(quinolin-7-yl)oxazolidine-4-carboxamide]
3 | 15 | Cc1cc(C(F)(F)F)cc(N2C(=O)N(CCC(O)CO)C[C@H]2C(=O)N(C)c2ccc(F)c(Cl)c2)n1 (stereo partly drawn) [Example 232, (4S)—N-(3-Chloro-4-fluorophenyl)-1-(3,4-dihydroxybutyl)-N-methyl-3-(6-methyl-4-(trifluoromethyl)pyridin-2-yl)-2-oxoimidazolidine-4-carboxamide]
4 | 42 | CCN(C(=O)[C@@H]1[C@H](O)[C@H](O)CN1c1nc(C)cc(C(F)(F)F)c1C#N)c1ccc(F)c(F)c1 [Example 56, (2S,3S,4R)-1-(3-Cyano-6-methyl-4-(trifluoromethyl)pyridin-2-yl)-N-(3,4-difluorophenyl)-N-ethyl-3,4-dihydroxypyrrolidine-2-carboxamide]
5 | 8 | Cc1cc(C(F)(F)F)cc(N2C(=O)N(CC3(O)CCN(C)C3)C[C@H]2C(=O)N(C)c2ccc(F)c(Cl)c2F)n1 (stereo partly drawn) [Example 223, (4S)—N-(3-Chloro-2,4-difluorophenyl)-1-((3-hydroxy-1-methylpyrrolidin-3-yl)methyl)-N-methyl-3-(6-methyl-4-(trifluoromethyl)pyridin-2-yl)-2-oxoimidazolidine-4-carboxamide]
6 | 7 | Cc1cc(C(F)(F)F)cc(N2C(=O)N(CCN3CCN(C)C(=O)C3)C[C@H]2C(=O)N(C)c2ccc(F)c(Cl)c2F)n1 [Example 210, (S)-N-(3-Chloro-2,4-difluorophenyl)-N-methyl-1-(2-(4-methyl-3-oxopiperazin-1-yl)ethyl)-3-(6-methyl-4-(trifluoromethyl)pyridin-2-yl)-2-oxoimidazolidine-4-carboxamide]
7 | 410 | CCN(C(=O)[C@@H]1C[C@H](N2CCOCC2)C(=O)N1c1cc(C(F)(F)F)cc(C)n1)c1ccc(F)c(Cl)c1 [Example 63, (2S,4S)—N-(3-Chloro-4-fluorophenyl)-N-ethyl-1-(6-methyl-4-(trifluoro-methyl)pyridin-2-yl)-4-morpholino-5-oxopyrrolidine-2-carboxamide]
8 | 22 | Cc1cc(C(F)(F)F)cc(N2C(=O)N(CCNS(C)(=O)=O)C[C@H]2C(=O)N(C)c2ccc(F)c(Cl)c2)n1 [Example 187, (S)—N-(3-Chloro-4-fluorophenyl)-N-methyl-3-(6-methyl-4-(trifluoromethyl)pyridin-2-yl)-1-(2-(methylsulfonamido)ethyl)-2-oxoimidazolidine-4-carboxamide]
9 | 45 | Cc1cc(C(F)(F)F)cc(N2C(=O)N(CCS(=O)(=O)N(C)C)C[C@H]2C(=O)N(C)c2ccc(F)c(Cl)c2)n1 [Example 181, (S)—N-(3-Chloro-4-fluorophenyl)-1-(2-(N,N-dimethylsulfamoyl)ethyl)-N-methyl-3-(6-methyl-4-(trifluoromethyl)pyridin-2-yl)-2-oxoimidazolidine-4-carboxamide]
10 | 227 | CCN(C(=O)[C@@H]1C[C@H](N(C)CCS(C)(=O)=O)CN1c1nc(C)cc(C)c1C#N)c1cccc(C)c1 [Example 46, (2S,4S)-1-(3-Cyano-4,6-dimethylpyridin-2-yl)-N-ethyl-4-(methyl(2-(methylsulfonyl)-ethyl)amino)-N-(m-tolyl)-pyrrolidine-2-carboxamide]
11 | 12 | CCc1c(F)ccc(N(C)C(=O)[C@@H]2COC(=O)N2c2cc(C(F)(F)F)cc(C)n2)c1F [Example 108, (S)—N-(3-Ethyl-2,4-difluorophenyl)-N-methyl-3-(6-methyl-4-(trifluoromethyl)pyridin-2-yl)-2-oxooxazolidine-4-carboxamide]
12 | 71 | Cc1cc(Br)cc(N2C(=O)OC[C@H]2C(=O)N(C)c2ccc(F)c(Cl)c2)n1 [Example 116, (S)-3-(4-Bromo-6-methylpyridin-2-yl)-N-(3-chloro-4-fluorophenyl)-N-methyl-2-oxooxazolidine-4-carboxamide]
13 | 1760 | CCN(C(=O)[C@@H]1C[C@@H](N)CN1c1nc(C)cc(C)c1C#N)c1cccc(C)c1 [Example 40, (2S,4R)-4-Amino-1-(3-cyano-4,6-dimethylpyridin-2-yl)-N-ethyl-N-(m-tolyl)pyrrolidine-2-carboxamide]
14 | 13 | Cc1cc(C(F)(F)F)cc(N2C(=O)N(CC(N)=O)C[C@H]2C(=O)N(C)c2ccc(F)c(Cl)c2)n1 [Example 184, (S)-1-(2-Amino-2-oxoethyl)-N-(3-chloro-4-fluorophenyl)-N-methyl-3-(6-methyl-4-(trifluoromethyl)-pyridin-2-yl)-2-oxoimidazolidine-4-carboxamide]
15 | 136 | CCN(C(=O)[C@@H]1C[C@H](N)C(=O)N1c1cc(C(F)(F)F)cc(C)n1)c1ccc(F)c(Cl)c1 [Example 61, (2S,4S)-4-Amino-N-(3-chloro-4-fluorophenyl)-N-ethyl-1-(6-methyl-4-(trifluoromethyl)pyridin-2-yl)-5-oxopyrrolidine-2-carboxamide]
16 | 76 | Cc1cc(C(F)(F)F)cc(N2C(=O)CC[C@H]2C(=O)N(C)c2ccc(F)c(C)n2)n1 [Example 60, (S)—N-(5-Fluoro-6-methylpyridin-2-yl)-N-methyl-1-(6-methyl-4-(trifluoromethyl)pyridin-2-yl)-5-oxopyrrolidine-2-carboxamide]
17 | 180 | Cc1cc(C(F)(F)F)c(C#N)c(N2C[C@@H](O)C[C@H]2C(=O)N(C)c2ccccc2)n1 [Example 8, (2S,4S)-1-(3-Cyano-6-methyl-4-(trifluoromethyl)pyridin-2-yl)-4-hydroxy-N-methyl-N-phenylpyrrolidine-2-carboxamide]
18 | 261 | CCN(C(=O)[C@@H]1COC(=O)N1c1cc(C(C)(F)F)cc(C)n1)c1ccc(F)c(Cl)c1 [Example 125, (S)—N-(3-Chloro-4-fluorophenyl)-3-(4-(1,1-difluoroethyl)-6-methylpyridin-2-yl)-N-ethyl-2-oxooxazolidine-4-carboxamide]
19 | 124 | CCN(C(=O)[C@@H]1C[C@H](N[C@H]2CCC[C@H]2O)CN1c1cc(C(F)(F)F)cc(C)n1)c1ccc(F)c(F)c1 [Example 134, (2S,4S)-N-(3,4-Difluorophenyl)-N-ethyl-4-(((1S,2R)-2-hydroxycyclopentyl)amino)-1-(6-methyl-4-(trifluoromethyl)pyridin-2-yl)pyrrolidine-2-carboxamide]
20 | 11 | Cc1cc(C(F)(F)F)cc(N2C(=O)OC[C@H]2C(=O)N(C)c2ccc(Cl)cc2F)n1 [Example 97, (S)-N-(4-Chloro-2-fluorophenyl)-N-methyl-3-(6-methyl-4-(trifluoromethyl)pyridin-2-yl)-2-oxooxazolidine-4-carboxamide]
21 | 33 | Cc1cc(C(F)(F)F)c(C#N)c(N2C[C@@H](O)C[C@H]2C(=O)N(C)c2ccc(Cl)c(F)c2)n1 [Example 18, (2S,4S)-N-(4-Chloro-3-fluorophenyl)-1-(3-cyano-6-methyl-4-(trifluoromethyl)pyridin-2-yl)-4-hydroxy-N-methyl-pyrrolidine-2-carboxamide]
22 | 395 | CCN(C)c1cc(C(F)(F)F)c(C#N)c(N2C[C@@H](O)C[C@H]2C(=O)N(C)c2cccc(C)c2)n1 [Example 31, (2S,4S)-1-(3-Cyano-6-(ethyl(methyl)amino)-4-(trifluoromethyl)pyridin-2-yl)-4-hydroxy-N-methyl-N-(m-tolyl)pyrrolidine-2-carboxamide]
23 | 11 | Cc1cc(C(F)(F)F)cc(N2C(=O)N(CC(O)CN(C)C)C[C@H]2C(=O)N(C)c2ccc(F)c(Cl)c2F)n1 (stereo partly drawn) [Example 214, (4S)—N-(3-Chloro-2,4-difluorophenyl)-1-(3-(dimethylamino)-2-hydroxypropyl)-N-methyl-3-(6-methyl-4-(trifluoromethyl)pyridin-2-yl)-2-oxoimidazolidine-4-carboxamide]
24 | 7 | Cc1cc(C(F)(F)F)cc(N2C(=O)N(CCN3CC(O)C3)C[C@H]2C(=O)N(C)c2ccc(F)c(Cl)c2F)n1 [Example 202, (S)-N-(3-Chloro-2,4-difluorophenyl)-1-(2-(3-hydroxyazetidin-1-yl)ethyl)-N-methyl-3-(6-methyl-4-(trifluoromethyl)pyridin-2-yl)-2-oxoimidazolidine-4-carboxamide]
25 | 121 | Cc1cccc(N(C)C(=O)[C@@H]2[C@@H](O)[C@@H](O)CN2c2nc(C)cc(C(F)(F)F)c2C#N)c1 [Example 53, (2S,3R,4S)-1-(3-Cyano-6-methyl-4-(trifluoromethyl)pyridin-2-yl)-3,4-dihydroxy-N-methyl-N-(m-tolyl)pyrrolidine-2-carboxamide]
26 | 4 | Cc1cc(C(F)(F)F)cc(N2C(=O)[C@@H](O)[C@@H](O)[C@H]2C(=O)N(C)c2ccc(F)c(Cl)c2F)n1 [Example 70, (2S,3S,4S)—N-(3-Chloro-2,4-difluorophenyl)-3,4-dihydroxy-N-methyl-1-(6-methyl-4-(trifluoromethyl)pyridin-2-yl)-5-oxopyrrolidine-2-carboxamide]
27 | 6 | Cc1cc(C(F)(F)F)cc(N2C(=O)NC[C@H]2C(=O)N(C)c2ccc3c(F)c[nH]c3n2)n1 [Example 239, (S)—N-(3-Fluoro-1H-pyrrolo[2,3-b]pyridin-6-yl)-N-methyl-3-(6-methyl-4-(trifluoromethyl)pyridin-2-yl)-2-oxoimidazolidine-4-carboxamide]
28 | 24 | Cc1cc(C(F)(F)F)cc(N2C(=O)N(CCCN(C)C)C[C@H]2C(=O)N(C)c2ccc(F)c(Cl)c2)n1 [Example 183, (S)-N-(3-Chloro-4-fluorophenyl)-1-(3-(dimethylamino)propyl)-N-methyl-3-(6-methyl-4-(trifluoromethyl)pyridin-2-yl)-2-oxoimidazolidine-4-carboxamide]
